Results reported in patent US7759486B2, “2,4,5-Trisubstituted pyrimidine compounds” (GlaxoSmithKline LLC, priority 2000, dated 2010).

Molecular target: T1, CSBP/p38 (Homo sapiens, UniProt Q16539)
T1 construct: made in house; host or cells: yeast
Assay: CSBP/p38 Kinase Assay (32P transfer from ATP to EGFR-derived T669 peptide)
Format: biochemical
Details: yeast-expressed, activated and purified p38, 0.17 mM ATP, 25 min at 37° C., read-out: IC50, positive inhibitory activity in this binding assay
Protocol: Assay: Test compound concentrations were prepared at 10× concentrations and LPS prepared at […] (final conc. of 50 ng/ml LPS) and added in 50 uL volumes to 1.5 mL eppendorf tubes. Heparinized human whole blood was obtained from healthy volunteers and was dispensed into eppendorf tubes containing compounds and LPS in 0.4 mL volumes and the tubes incubated at 37 C. Following a 4 hour incubation, the tubes were centrifuged at 5000 rpm for 5 minutes in a TOMY microfuge, plasma was withdrawn and frozen at −80 C. Cytokine measurement: IL-1 and/or TNF were quantified using a standardized ELISA technology. An in-house ELISA kit was used to detect human IL-1 and TNF. Concentrations of IL-1 or TNF were determined from standard curves of the appropriate cytokine and IC50 values for test compound (concentration that inhibited 50% of LPS-stimulated cytokine production) were calculated by linear regression analysis. CSBP/p38 Kinase Assay:
This assay measures the CSBP/p38-catalyzed transfer of ^32P from […] to threonine residue in an epidermal growth factor receptor (EGFR)-derived peptide (T669) with the following sequence: […] (SEQ ID No. 1) (residues 661-681). […]
Reactions were carried in round bottom 96 well plate (from Corning) in a 30 ml volume. […] Filters were washed with 75 mM phosphoric acids, and incorporated 32P was quantified using beta scintillation counter. […]

T1 sequence (Q16539 whole entry): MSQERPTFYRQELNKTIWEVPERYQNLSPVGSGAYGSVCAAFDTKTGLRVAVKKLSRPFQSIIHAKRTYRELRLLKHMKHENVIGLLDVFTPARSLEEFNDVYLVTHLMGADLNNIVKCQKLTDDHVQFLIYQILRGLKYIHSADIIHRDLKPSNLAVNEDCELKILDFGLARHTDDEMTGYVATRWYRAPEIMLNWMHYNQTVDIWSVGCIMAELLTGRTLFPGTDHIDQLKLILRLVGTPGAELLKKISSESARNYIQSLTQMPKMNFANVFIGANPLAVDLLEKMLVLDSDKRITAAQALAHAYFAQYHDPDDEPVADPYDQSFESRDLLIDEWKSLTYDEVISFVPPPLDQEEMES

IC50: < 10 µM
Structure (SMILES): CSc1nc(Oc2ccccc2)c2ccc(=O)n(-c3ccccc3Cl)c2n1 [Example 111, 8-(2-Chloro-phenyl)-2-methylsulfanyl-4-phenoxy-8H-pyrido[2,3-d]pyrimidin-7-one]
